Data as given in patent US8377963B2, “Insulin-regulated aminopeptidase (IRAP) inhibitors and uses thereof” (Howard Florey Institute, priority 2007, dated 2013).

Legend:
[1] = biological target: Angiotensin converting enzyme 1 (Homo sapiens, UniProt P12821); test: Angiotensin converting enzyme assay; assay type: biochemical; conditions: read-out: % inhibition of the catalytic activity of the enzyme
Description: Angiotensin converting enzyme assay. The enzyme (final concentration 0.02 pmol/100 L) was incubated with 200 μL of assay solution that included 5 mmol/L HHL in 100 mmol/L potassium buffer (pH 8.3) that contained 300 mmol/L NaCl and 10^−4 mol/L ZnSO4 for 3 hours at 37° C. The enzymatic reaction was stopped by the addition of 1.5 mL of 0.28N NaOH, 100 μL of o-phthaldialdehyde (20 mg/mL) in methanol was added and the fluorescent reaction stopped by the addition of 200 μL of 3N HCl. The product, L-His-Leu, was measured fluorometrically (360 nm excitation and 500 nm emission).
(§1) Limited inhibition of control enzymes was observed.

Recombinant human LTA4H = biological target: T1, Recombinant human LTA4H (Homo sapiens, UniProt P09960); test: Leukotriene A4 hydrolase assay; assay type: biochemical; conditions: read-out: % inhibition of the catalytic activity of the enzyme
T1 construct: purchased Cayman Chemicals
T1 sequence (P09960 1-611): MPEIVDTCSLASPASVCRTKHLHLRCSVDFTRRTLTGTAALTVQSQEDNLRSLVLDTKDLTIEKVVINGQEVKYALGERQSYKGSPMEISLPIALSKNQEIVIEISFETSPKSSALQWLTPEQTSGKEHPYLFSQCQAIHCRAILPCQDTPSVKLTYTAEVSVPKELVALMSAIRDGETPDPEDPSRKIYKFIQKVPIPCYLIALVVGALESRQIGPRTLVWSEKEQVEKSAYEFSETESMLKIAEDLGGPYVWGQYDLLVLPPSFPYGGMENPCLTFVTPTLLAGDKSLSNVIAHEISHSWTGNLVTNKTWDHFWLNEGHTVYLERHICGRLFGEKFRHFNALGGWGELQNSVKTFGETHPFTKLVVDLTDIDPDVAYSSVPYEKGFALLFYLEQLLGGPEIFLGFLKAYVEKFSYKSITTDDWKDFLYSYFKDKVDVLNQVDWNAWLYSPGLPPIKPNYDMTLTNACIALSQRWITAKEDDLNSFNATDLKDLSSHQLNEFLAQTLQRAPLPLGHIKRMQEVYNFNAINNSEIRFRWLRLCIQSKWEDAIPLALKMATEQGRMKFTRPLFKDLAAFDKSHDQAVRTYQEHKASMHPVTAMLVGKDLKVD
Description: Leukotriene A4 hydrolase assay. Recombinant human LTA4H (Cayman Chemicals Michigan USA) (1-20 μg) was incubated at room temperature with alanine-p-nitroanilide as substrate in 50 mM Tris-HCl buffer, pH 8.0, containing 100 mM KCl with or without increasing concentrations of an inhibitor. The absorbance at 405 nm was measured at 10 min intervals.
as §1

Aminopeptidase N = biological target: T2, Aminopeptidase N (Sus scrofa, UniProt P15145); test: Aminopeptidase N assay; assay type: biochemical; conditions: read-out: % inhibition of the catalytic activity of the enzyme
T2 construct: purchased Sigma Aldrich
T2 sequence (P15145 1-963): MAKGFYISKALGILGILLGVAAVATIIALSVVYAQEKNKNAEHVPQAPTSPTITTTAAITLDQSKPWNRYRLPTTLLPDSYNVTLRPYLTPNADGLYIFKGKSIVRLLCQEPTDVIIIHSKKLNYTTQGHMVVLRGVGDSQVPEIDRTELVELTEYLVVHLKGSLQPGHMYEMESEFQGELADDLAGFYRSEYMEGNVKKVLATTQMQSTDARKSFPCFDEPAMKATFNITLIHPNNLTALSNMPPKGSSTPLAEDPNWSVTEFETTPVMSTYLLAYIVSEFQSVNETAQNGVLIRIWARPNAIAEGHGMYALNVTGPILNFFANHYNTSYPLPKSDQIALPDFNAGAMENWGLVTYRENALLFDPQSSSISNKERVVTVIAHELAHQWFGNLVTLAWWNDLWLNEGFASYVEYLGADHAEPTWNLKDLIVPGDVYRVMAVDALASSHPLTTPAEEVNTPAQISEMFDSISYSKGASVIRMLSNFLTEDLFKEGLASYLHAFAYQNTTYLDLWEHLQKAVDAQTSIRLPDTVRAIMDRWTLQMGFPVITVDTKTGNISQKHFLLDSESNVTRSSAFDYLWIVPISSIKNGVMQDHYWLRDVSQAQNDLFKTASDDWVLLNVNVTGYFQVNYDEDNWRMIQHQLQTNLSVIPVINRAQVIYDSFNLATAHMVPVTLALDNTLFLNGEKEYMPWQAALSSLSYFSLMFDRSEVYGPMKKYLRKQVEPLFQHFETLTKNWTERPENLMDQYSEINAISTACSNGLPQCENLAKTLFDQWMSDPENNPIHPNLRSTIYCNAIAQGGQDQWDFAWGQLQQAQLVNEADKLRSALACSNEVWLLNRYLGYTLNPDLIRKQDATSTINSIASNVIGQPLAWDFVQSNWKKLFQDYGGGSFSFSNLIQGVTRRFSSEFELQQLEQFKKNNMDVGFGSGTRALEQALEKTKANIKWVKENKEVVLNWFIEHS
Description: Aminopeptidase N assay. 5 mU of aminopeptidase M (Sigma Aldrich) was incubated with 100 μM of substrate alanine-β-naphthylamide (Sigma Aldrich) in Tris buffered saline (50 mM Tris-HCl, 150 mM NaCl pH 7.5) at 25° C. IRAP inhibitors (1-10 μM) were added after 1 minute and fluorescence at 405 nm was followed.
as §1

[2] = tested on: Glucose-6-phosphate dehydrogenase/glucose hexokinase; test: Glucose-6-phosphate dehydrogenase and hexokinase activity, fluorimetric assay; conditions: 100 μM
Description: Glucose-6-phosphate dehydrogenase and hexokinase activity. Glucose-6-phosphate dehydrogenase and hexokinase activity in the absence and presence of the compounds was determined in a fluorimetric assay. Ten mM Tris MgCl2 buffer (total volume of 200 ml) containing glucose-6-phosphate dehydrogenase, 0.3M ATP, 30 mM NADP+ was added to 96 well microtitre plate together with 20 μl of compound, a reading at excitation 350 nm and emission 510 nm was taken followed by the addition of hexokinase and another reading.

IRAP = biological target: T3, IRAP (Homo sapiens, UniProt Q9UIQ6); test: IRAP enzymatic assay (hydrolysis of Leu-MCA); assay type: biochemical; conditions: substrate Leu-MCA, solubilized membranes of HEK 293T cells transfected with IRAP
T3 construct: expressed in transfected cells; host or cells: HEK 293T
T3 sequence (Q9UIQ6 whole entry): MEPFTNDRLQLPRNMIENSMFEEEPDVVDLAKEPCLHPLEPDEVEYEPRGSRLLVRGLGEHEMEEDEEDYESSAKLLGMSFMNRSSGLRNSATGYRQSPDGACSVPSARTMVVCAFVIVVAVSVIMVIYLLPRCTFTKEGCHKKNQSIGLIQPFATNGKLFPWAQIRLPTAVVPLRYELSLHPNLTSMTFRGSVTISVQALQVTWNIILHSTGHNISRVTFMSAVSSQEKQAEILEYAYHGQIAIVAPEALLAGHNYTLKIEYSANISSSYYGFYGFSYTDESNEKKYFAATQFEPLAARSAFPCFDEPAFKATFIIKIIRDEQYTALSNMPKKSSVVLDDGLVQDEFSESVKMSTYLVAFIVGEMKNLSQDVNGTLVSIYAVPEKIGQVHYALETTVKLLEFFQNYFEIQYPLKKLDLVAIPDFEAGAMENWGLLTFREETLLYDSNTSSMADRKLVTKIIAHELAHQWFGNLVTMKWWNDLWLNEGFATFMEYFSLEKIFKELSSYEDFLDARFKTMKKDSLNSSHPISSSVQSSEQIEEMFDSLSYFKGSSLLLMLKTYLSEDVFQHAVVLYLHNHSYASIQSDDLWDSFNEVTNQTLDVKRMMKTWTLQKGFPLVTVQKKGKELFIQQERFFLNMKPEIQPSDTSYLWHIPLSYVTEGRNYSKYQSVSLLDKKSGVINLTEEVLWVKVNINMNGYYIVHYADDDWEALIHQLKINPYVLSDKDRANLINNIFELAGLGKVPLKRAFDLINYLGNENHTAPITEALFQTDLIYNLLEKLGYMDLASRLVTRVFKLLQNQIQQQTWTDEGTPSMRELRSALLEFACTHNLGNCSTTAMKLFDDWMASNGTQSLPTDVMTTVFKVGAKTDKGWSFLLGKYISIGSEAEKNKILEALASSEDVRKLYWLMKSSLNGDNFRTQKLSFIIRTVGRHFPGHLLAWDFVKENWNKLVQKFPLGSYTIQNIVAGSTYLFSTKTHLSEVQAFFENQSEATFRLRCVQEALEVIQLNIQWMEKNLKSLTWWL
Description: An in vitro enzymatic assay was used to initially assess IRAP inhibitory activity.
After solubilization, the membranes were pelleted by centrifugation at 23,100 g for 15 min at 4° C., and the supernatant was reserved as the source of IRAP activity. The enzymatic activities of IRAP were determined by the hydrolysis of the synthetic substrate Leu-MCA (Sigma-Aldrich, Missouri, USA) monitored by the release of a fluorogenic product, MCA, at excitation and emission wavelengths of 380 and 440 nm, respectively. Assays were performed in 96-well plates; each well contains between […] solubilized membrane protein, a range of concentration of substrate in a final volume of 100 μL 50 mM Tris-HCl buffer (pH 7.4). Non-specific hydrolysis of the substrate was corrected by subtracting the emission from incubations with membranes transfected with empty vector. Reactions proceeded at 37° C. for 30 min within a thermostatted FLEX station fluorescence microplate reader (Molecular Devices, Sunnyvale, Calif.). […] Km values of IRAP for Leu-MCA were determined from the kinetic studies. […] All data obtained were from at least three separate experiments performed in duplicate.

Sequence of Angiotensin converting enzyme 1 (P12821 30-1306): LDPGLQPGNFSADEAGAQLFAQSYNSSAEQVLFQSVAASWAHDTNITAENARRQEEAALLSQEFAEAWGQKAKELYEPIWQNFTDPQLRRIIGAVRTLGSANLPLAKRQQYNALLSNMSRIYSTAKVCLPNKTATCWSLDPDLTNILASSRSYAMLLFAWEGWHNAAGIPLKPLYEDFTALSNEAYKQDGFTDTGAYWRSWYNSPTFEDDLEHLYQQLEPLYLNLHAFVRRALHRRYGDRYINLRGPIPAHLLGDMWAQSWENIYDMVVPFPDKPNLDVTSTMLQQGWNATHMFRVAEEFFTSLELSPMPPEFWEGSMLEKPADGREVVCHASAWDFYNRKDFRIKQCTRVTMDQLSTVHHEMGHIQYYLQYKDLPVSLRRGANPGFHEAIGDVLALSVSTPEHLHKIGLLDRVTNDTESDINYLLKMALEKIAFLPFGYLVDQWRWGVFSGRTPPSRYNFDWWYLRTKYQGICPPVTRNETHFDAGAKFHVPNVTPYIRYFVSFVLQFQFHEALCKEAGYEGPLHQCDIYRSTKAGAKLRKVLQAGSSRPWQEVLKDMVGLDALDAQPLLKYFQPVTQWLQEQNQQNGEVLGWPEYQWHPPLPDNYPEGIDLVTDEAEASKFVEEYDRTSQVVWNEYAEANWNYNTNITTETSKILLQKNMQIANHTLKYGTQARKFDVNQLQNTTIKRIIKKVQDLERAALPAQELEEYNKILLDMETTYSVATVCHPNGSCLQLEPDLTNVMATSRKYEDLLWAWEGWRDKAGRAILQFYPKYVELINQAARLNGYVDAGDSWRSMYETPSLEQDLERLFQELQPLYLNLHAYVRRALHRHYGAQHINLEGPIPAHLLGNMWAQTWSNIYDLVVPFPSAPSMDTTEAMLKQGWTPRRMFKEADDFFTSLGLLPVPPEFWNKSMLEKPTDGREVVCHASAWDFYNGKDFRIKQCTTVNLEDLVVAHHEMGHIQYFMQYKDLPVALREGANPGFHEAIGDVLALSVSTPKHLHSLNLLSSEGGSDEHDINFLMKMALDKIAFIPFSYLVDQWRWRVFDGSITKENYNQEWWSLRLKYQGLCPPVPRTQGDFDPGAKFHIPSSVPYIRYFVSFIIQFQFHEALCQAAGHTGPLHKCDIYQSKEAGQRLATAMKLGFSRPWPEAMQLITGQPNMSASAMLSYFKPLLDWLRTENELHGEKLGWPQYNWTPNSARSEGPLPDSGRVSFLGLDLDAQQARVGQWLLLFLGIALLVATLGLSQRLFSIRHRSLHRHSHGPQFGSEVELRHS

| Structure (SMILES) | inhibition at 10 µM [1] | inhibition at 100 µM [1] | inhibition at 100 µM (Recombinant human LTA4H) | inhibition at 10 µM (Aminopeptidase N) | % inhibition of the catalytic activity of the enzyme [2] | inhibition at 10 µM (Recombinant human LTA4H; 10 μM) | inhibition at 100 µM (Aminopeptidase N; 100 μM) | IC50 (IRAP) | Ki (IRAP; calculated from IC50=Ki(1+[S]/Km), read-out: K1) |
| --- | --- | --- | --- | --- | --- | --- | --- | --- | --- |
| CCOC(=O)C1=C(N)Oc2cc(O)ccc2C1c1cnc2ccccc2c1 (stereo not shown) [Compound 3, Ethyl 2-amino-7-hydroxy-4-quinolin-3-yl-4H-chromene-3-carboxylate] | 0% | 3% | 4% | 12% | 0% |  |  |  |  |
| CCOC(=O)C1=C(NC(C)=O)Oc2cc(O)ccc2C1c1cnc2ccccc2c1 (stereo not shown) [Compound 4, Ethyl 2-(acetylamino)-7-hydroxy-4-quinolin-3-yl-4H-chromene-3-carboxylate] | 0% | 0% | 25% | 3% |  | 0% | 14% |  |  |
| CCOC(=O)C1=C(N)Oc2cc(O)ccc2C1c1cccnc1 (stereo not shown) [reference compound] |  |  |  |  |  |  |  | 3000 nM | 2000 nM |
